Assay results as given in patent US20120165223A1 (priority 2006, published 2012).

System: crypt cells of the colon of HFA mice
Conditions: DNA chip, colonic crypt cells, 200 mg/kg orally four days
Method: The collected colon is opened and intestinal content is cleaned with a sterilized saline solution and put in a cryomold in the longitudinal direction to be embedded as an OCT compound and then it is maintained in a freezer at −80° C. The frozen tissue is cut to have the thickness of 8 μm using a cryotome, put on a glass slide (HistoGene LCM slide, Arcturus) and cleaned using a staing (HistoGene LCM frozen section staing kit, Arcturus) and then a hematoxylin stain is performed and then dehydrated. The stained colonic tissue slide of the dyed mice is put on a laser captured microdissector (PixCell II, Arcturus) and crypt cells are isolated from the colon by a laser.
The amplified aRNA (24 μl) of 10 μg is mixed with random hexamer (5 mg/Ml) of 2 μl to be 24 μl which is heated for 10 minutes at 70° C. The first strand master mix liquid of 26 μl containing Cy3- or Cy5-dUTP (1 mM, respectively) is added to aRNA and reacted for two hours at 37° C. […] After the cDNA is deactivated for three minutes at 98° C., a control target of 25 μl with 2× hybridization buffer of 105 μl (Agilent In situ Hybridization kit) to be instilled on a mouse DNA microarray chip (TwinChip Mouse 7.4K cDNA array, Digital Genomics, Seoul, Korea) and hybridized for 17 hours at 60° C. […] Each fluorescence intensity is obtained by performing a global normalization and measuring the ratio of expressing Cy3- and Cy5- fluorescence with respect to one gene.

Row | Structure (SMILES) | Ang gene expression in comparison with HFA (FIG. 4a) | Casp14 gene expression in comparison with HFA (FIG. 3A) | Eif2ak3 gene expression in comparison with HFA (FIG. 3A) | I16 gene expression in comparison with HFA (FIG. 3A) | Mpp1 gene expression in comparison with HFA (FIG. 4a) | Mt1 gene expression in comparison with HFA (FIG. 4a) | S1c26a1 gene expression in comparison with HFA (FIG. 4a) | Saa3 gene expression in comparison with HFA (FIG. 4a) | Spn2a gene expression in comparison with HFA (FIG. 3A) | Tegt gene expression in comparison with HFA (FIG. 3A)
1 | CN(C)[C@@H]1C(=O)C(C(N)=O)=C(O)[C@@]2(O)C(=O)C3=C(O)c4c(O)cccc4[C@@](C)(O)[C@H]3C[C@@H]12 [TC, Tetracycline] | nearly two or four times | increase the expression of the genes | increase the expression of the genes | increase the expression of the genes | prevent genes from expressing themselves more than twice | nearly two or four times | prevent genes from expressing themselves more than twice | prevent genes from expressing themselves more than twice | prevent genes from expressing themselves more than twice | prevent genes from expressing themselves more than twice
2 | O=C(O)c1cn(C2CC2)c2cc(N3CCNCC3)c(F)cc2c1=O [Cip, Ciprofloxacin] | nearly two or four times | increase the expression of the genes | increase the expression of the genes | increase the expression of the genes | prevent genes from expressing themselves more than twice | nearly two or four times | prevent genes from expressing themselves more than twice | prevent genes from expressing themselves more than twice | prevent genes from expressing themselves more than twice | prevent genes from expressing themselves more than twice
